The target in one series is T1, CYP1A1 (Homo sapiens, UniProt P04798).
T1 sequence (P04798 whole entry): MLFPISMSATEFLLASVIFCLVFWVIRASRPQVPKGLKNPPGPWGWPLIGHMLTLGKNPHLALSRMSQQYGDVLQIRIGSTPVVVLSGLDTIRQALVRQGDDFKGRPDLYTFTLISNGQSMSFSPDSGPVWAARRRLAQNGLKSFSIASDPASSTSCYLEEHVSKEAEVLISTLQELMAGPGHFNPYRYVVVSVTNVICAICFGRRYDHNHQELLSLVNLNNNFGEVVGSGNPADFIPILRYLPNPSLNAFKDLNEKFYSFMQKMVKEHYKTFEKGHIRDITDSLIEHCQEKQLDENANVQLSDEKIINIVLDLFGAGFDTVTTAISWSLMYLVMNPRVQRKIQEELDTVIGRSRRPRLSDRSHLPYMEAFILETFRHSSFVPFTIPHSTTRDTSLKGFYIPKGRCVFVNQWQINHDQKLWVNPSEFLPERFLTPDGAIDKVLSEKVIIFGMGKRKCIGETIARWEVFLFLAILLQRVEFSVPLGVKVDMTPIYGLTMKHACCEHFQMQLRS
The series is described as follows: Inhibition of human recombinant CYP1A1 using 7-ethoxyresorufin as substrate assessed as percent enzyme activity at 1 uM after 15 mins in presence of NADPH by EROD assay relative to control. It is filed as ADME. Details: scale not given: the % may be the effect or the level left. Particulars: recombinant CYP1A1, probe 7-ethoxyresorufin, read-out: Activity.

In series [1] the target is T2, Cytochrome P450 1B1 (Homo sapiens, UniProt Q16678).
T2 sequence (Q16678 whole entry): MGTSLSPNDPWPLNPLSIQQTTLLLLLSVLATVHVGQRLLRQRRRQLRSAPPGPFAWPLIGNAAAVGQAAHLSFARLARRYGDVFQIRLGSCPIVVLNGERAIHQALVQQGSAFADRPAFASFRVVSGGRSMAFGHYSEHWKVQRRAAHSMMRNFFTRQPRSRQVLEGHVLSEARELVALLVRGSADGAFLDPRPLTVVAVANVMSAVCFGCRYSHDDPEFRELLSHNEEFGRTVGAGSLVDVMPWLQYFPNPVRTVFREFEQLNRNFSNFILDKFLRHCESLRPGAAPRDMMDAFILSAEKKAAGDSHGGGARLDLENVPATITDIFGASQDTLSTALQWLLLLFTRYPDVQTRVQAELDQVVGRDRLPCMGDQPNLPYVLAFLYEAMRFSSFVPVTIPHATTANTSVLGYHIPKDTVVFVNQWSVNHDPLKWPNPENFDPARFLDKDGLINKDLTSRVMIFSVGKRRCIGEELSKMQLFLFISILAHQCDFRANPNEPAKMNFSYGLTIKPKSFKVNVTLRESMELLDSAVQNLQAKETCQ
Description: Inhibition of human recombinant CYP1B1 using 7-ethoxyresorufin as substrate assessed as percent enzyme activity at 1 uM after 30 mins in presence of NADPH by EROD assay relative to control. Details: scale not given: the % may be the effect or the level left. The conditions noted are these: read-out: Activity.

A further series deals with T3, CYP1A2 (Homo sapiens, UniProt P05177).
T3 sequence (P05177 whole entry): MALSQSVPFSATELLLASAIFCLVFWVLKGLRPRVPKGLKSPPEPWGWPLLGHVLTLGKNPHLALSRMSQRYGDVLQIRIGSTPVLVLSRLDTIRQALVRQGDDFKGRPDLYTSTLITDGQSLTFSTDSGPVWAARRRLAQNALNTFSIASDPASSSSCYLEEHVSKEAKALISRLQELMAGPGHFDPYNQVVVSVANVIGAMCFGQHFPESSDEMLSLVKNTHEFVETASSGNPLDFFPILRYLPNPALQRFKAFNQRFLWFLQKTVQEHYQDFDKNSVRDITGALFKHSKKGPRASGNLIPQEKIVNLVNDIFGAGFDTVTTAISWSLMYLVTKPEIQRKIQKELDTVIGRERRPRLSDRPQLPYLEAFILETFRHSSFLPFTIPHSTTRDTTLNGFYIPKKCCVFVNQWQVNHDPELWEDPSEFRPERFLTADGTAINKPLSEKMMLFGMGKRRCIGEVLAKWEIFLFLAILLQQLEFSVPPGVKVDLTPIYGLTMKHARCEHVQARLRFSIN
The series is described as follows: Inhibition of human recombinant CYP1A2 using 7-ethoxyresorufin as substrate assessed as percent enzyme activity at 1 uM after 30 mins in presence of NADPH by EROD assay relative to control. The format is ADME. The arrangement: scale not given: the % may be the effect or the level left. The conditions noted are these: recombinant CYP1A2, probe 7-ethoxyresorufin, read-out: Activity.

Series [2] addresses T2, Cytochrome P450 1B1. Description: Binding affinity to human C-terminal 4His-tagged CYP1B1 expressed in Escherichia coli DH5alpha assessed as spectral dissociation constant by spectrophotometric analysis. Particulars: read-out: Ks.

`CN(C)C(=O)Sc1cccc(-c2cc(=O)c3ccc4ccccc4c3o2)c1`: the activity at 0.25 h, 1 µM at CYP1A1 was 3.8%. Further, the results for the activity at 0.5 h, 1 µM at Cytochrome P450 1B1 [1] and at CYP1A2 were 2.4% and 68.7%, respectively.
The like results for `N[C@H]1CC[C@H](c2cc(=O)c3ccc4ccccc4c3o2)CC1` were, in that order, 84.2%, 89.5% and 95.4%.
For the compound `O=c1cc([C@H]2CC[C@@H](O)CC2)oc2c1ccc1ccccc12`, at CYP1A1, the activity at 0.25 h, 1 µM was 87.3%. The activity at 0.5 h, 1 µM was 90.4% at Cytochrome P450 1B1 [1] and 77.3% at CYP1A2. The Kd at Cytochrome P450 1B1 [2] was > 1220 µM.
In the same order, the values of `O=c1cc([C@H]2CC[C@H](O)CC2)oc2c1ccc1ccccc12` are 72.7%, 51.3%, 76.2% and 62.7 µM.
On to `CS(=O)(=O)O[C@@H]1CCC[C@@H](c2cc(=O)c3ccc4ccccc4c3o2)C1` (relative stereo), for which, on CYP1A1, the activity at 0.25 h, 1 µM is 66.5%. Moreover, the activity at 0.5 h, 1 µM on Cytochrome P450 1B1 [1] turned out to be 59.9%; at CYP1A2 it was 69.1%.
For the compound `CS(=O)(=O)OCC1CCC(c2cc(=O)c3ccc4ccccc4c3o2)CC1` (racemic), the activity at 0.25 h, 1 µM at CYP1A1 was found to be 78.1%. The results for the activity at 0.5 h, 1 µM at Cytochrome P450 1B1 [1] and at CYP1A2 were 50.1% and 96.4%, respectively.
Consider `CN(C)C(=O)Sc1ccc(-c2cc(=O)c3ccc4ccccc4c3o2)cc1`, for which the activity at 0.25 h, 1 µM on CYP1A1 amounted to 10.3%. Also, the values for the activity at 0.5 h, 1 µM on Cytochrome P450 1B1 [1] and on CYP1A2 were 12.3% and 91.9%, respectively.
Regarding `O=c1cc(C2CC=CCC2)oc2c1ccc1ccccc12` (stereo unspecified), the activity at 0.25 h, 1 µM at CYP1A1 was 38.1%. Besides, the figures for the activity at 0.5 h, 1 µM at Cytochrome P450 1B1 [1] and at CYP1A2 were 6.5% and 36.9%, respectively. Besides, the Kd on Cytochrome P450 1B1 [2] was determined as 3.1 µM.
For the compound `CN(C)C(=S)Oc1ccc(-c2cc(=O)c3ccc4ccccc4c3o2)cc1`, at CYP1A1, the activity at 0.25 h, 1 µM amounted to 17.6%. Also, the figures for the activity at 0.5 h, 1 µM on Cytochrome P450 1B1 [1] and at CYP1A2 were 15.1% and 96.9%, respectively.
The like results for `CC(=O)SC1CCCC(c2cc(=O)c3ccc4ccccc4c3o2)C1` (mixture of isomers) were, in that order, 31.7%, 4.4% and 0.5%.
Regarding `C#C[C@H]1CC[C@H](c2cc(=O)c3ccc4ccccc4c3o2)CC1`, the activity at 0.25 h, 1 µM at CYP1A1 amounted to 0.5%. Also, the activity at 0.5 h, 1 µM at Cytochrome P450 1B1 [1] turned out to be 15%; on CYP1A2, 8.8%. On Cytochrome P450 1B1 [2], the Kd was found to be 264 µM.
For `O=c1cc(C2CCC(CO)CC2)oc2c1ccc1ccccc12` (mixture of isomers), the activity at 0.25 h, 1 µM at CYP1A1 is 85.9%. The figures for the activity at 0.5 h, 1 µM at Cytochrome P450 1B1 [1] and at CYP1A2 were 56.9% and 92.7%, respectively.
Turning to `O=c1cc([C@@H]2CCC[C@H](O)C2)oc2c1ccc1ccccc12` (relative stereo), the activity at 0.25 h, 1 µM on CYP1A1 was 71.3%. The results for the activity at 0.5 h, 1 µM on Cytochrome P450 1B1 [1] and on CYP1A2 were 79.4% and 68.2%, respectively.
In the same order, the values of `CS(=O)(=O)O[C@H]1CC[C@H](c2cc(=O)c3ccc4ccccc4c3o2)CC1` are 69.9%, 72.5% and 80.3%.
Take `c1c[nH]cn1` [IMIDAZOLE]: the Kd at Cytochrome P450 1B1 [2] is 1260 µM.
As to `O=c1cc(C2CCCC2)oc2c1ccc1ccccc12`, the activity at 0.25 h, 1 µM on CYP1A1 is 28%. Also, the activity at 0.5 h, 1 µM at Cytochrome P450 1B1 [1] is 55.3%; at CYP1A2, 34.5%.
In the case of `Nc1ccc(-c2cc(=O)c3ccc4ccccc4c3o2)cc1`, on CYP1A1, the activity at 0.25 h, 1 µM turned out to be 2.1%. Moreover, the activity at 0.5 h, 1 µM was -1.2% on Cytochrome P450 1B1 [1] and -16.3% on CYP1A2.
In the same order, the values of `O=c1cc(-c2cccc(S)c2)oc2c1ccc1ccccc12` are 18.7%, 9.8% and 56.2%.
In the same order, the values of `O=c1cc([C@H]2C[C@@H]3C=C[C@H]2C3)oc2c1ccc1ccccc12` are 61%, 83% and 34%.
The like results for `O=c1cc(-c2ccc(S)cc2)oc2c1ccc1ccccc12` were, in that order, 71.3%, 54.3% and 106%.
With `CS(=O)(=O)O[C@H]1CCC[C@@H](c2cc(=O)c3ccc4ccccc4c3o2)C1` (relative stereo), at CYP1A1, the activity at 0.25 h, 1 µM is 38.6%. The values for the activity at 0.5 h, 1 µM on Cytochrome P450 1B1 [1] and on CYP1A2 were 80.5% and 79.1%, respectively.
Take `COc1ccc(-c2cc(=O)c3ccc4ccccc4c3o2)cc1`: at CYP1A1, the activity at 0.25 h, 1 µM came to 4%. The activity at 0.5 h, 1 µM on Cytochrome P450 1B1 [1] is -0.5%; on CYP1A2, 15.9%.
In the same order, the values of `O=c1cc([C@@H]2CCC[C@@H](O)C2)oc2c1ccc1ccccc12` (relative stereo) are 78%, 72.9% and 73.9%.
As to `Nc1cccc(-c2cc(=O)c3ccc4ccccc4c3o2)c1`, the activity at 0.25 h, 1 µM at CYP1A1 came to 7.6%. Also, the activity at 0.5 h, 1 µM on Cytochrome P450 1B1 [1] is 0.2%; on CYP1A2, -3.5%.
As to `CC(C)C1CCC(c2cc(=O)c3ccc4ccccc4c3o2)CC1` (mixture of isomers), the activity at 0.25 h, 1 µM at CYP1A1 came to 48.3%. In addition, the activity at 0.5 h, 1 µM at Cytochrome P450 1B1 [1] came out at 27.9%. The Kd on Cytochrome P450 1B1 [2] was determined as 124 µM.
As for `O=c1cc(C23CC4CC(CC(C4)C2)C3)oc2c1ccc1ccccc12`, at CYP1A1, the activity at 0.25 h, 1 µM came to 53.9%. The activity at 0.5 h, 1 µM on Cytochrome P450 1B1 [1] came out at 89%; at CYP1A2, 77.8%.
In the same order, the values of `O=c1cc([C@H]2C[C@H]3C=C[C@@H]2C3)oc2c1ccc1ccccc12` are 43%, 74% and 0%.
The like results for `N[C@H]1CC[C@@H](c2cc(=O)c3ccc4ccccc4c3o2)CC1` were, in that order, 73.7%, 81.6% and 74.5%.
In the same order, the values of `CS(=O)(=O)O[C@H]1CC[C@@H](c2cc(=O)c3ccc4ccccc4c3o2)CC1` are 66.1%, 51.5% and 57.7%.
Regarding `COc1cccc(-c2cc(=O)c3ccc4ccccc4c3o2)c1`, the activity at 0.25 h, 1 µM on CYP1A1 came to 8.7%. For the same compound, the activity at 0.5 h, 1 µM at Cytochrome P450 1B1 [1] amounted to 1.9%; at CYP1A2, 6.1%.
For the compound `NC1CCCC(c2cc(=O)c3ccc4ccccc4c3o2)C1` (mixture of isomers), the activity at 0.25 h, 1 µM at CYP1A1 turned out to be 80.9%. Moreover, the activity at 0.5 h, 1 µM on Cytochrome P450 1B1 [1] was 64.7%; on CYP1A2, 44.5%. For the same compound, the Kd at Cytochrome P450 1B1 [2] came out at 2.9 µM.
The like results for `C#C[C@H]1CC[C@@H](c2cc(=O)c3ccc4ccccc4c3o2)CC1` were, in that order, 11.3%, 0.9%, 21% and 7.3 µM.
As to `CN(C)C(=S)Oc1cccc(-c2cc(=O)c3ccc4ccccc4c3o2)c1`, on CYP1A1, the activity at 0.25 h, 1 µM is 3.1%. For the same compound, the figures for the activity at 0.5 h, 1 µM at Cytochrome P450 1B1 [1] and on CYP1A2 were 2.5% and 75.4%, respectively.
`O=c1cc(-c2cccc(O)c2)oc2c1ccc1ccccc12`: the activity at 0.25 h, 1 µM on CYP1A1 is 8.2%. For the same compound, the activity at 0.5 h, 1 µM came out at 1.6% on Cytochrome P450 1B1 [1] and 37.2% on CYP1A2.

These data come from ChEMBL document CHEMBL4308906, “Design and synthesis of selective CYP1B1 inhibitor via dearomatization of α-naphthoflavone” (Bioorg Med Chem, 2019).
